In brackets after ≈: the same amount, converted by molar mass.
Assays:
Human KCNQ2/3 channel = target: T1, Human KCNQ2/3 channel (Homo sapiens, UniProt O43525+O43526); experiment: Opening action with respect to KCNQ2/3 channel by depolarization stimulation (thallium influx, FLIPR); assay type: cell-based; conditions: concentration giving 50% of the maximum reaction of retigabine (10 μM); human KCNQ2/3 expressing CHO-DHFR- cells; read-out: KCNQ2/3 ECrtg50
T1 construct: expressed in transfected cells; host or cells: CHO-DHFR- cells
Description: Human KCNQ2/3 expression cells (CHO-DHFR− cells) were seeded in each well of a 384-well plate (collagen-coated, black, clear bottom) at 0.5×10^4 cells/50 μL per well and cultured using a MEM ALPHA medium (containing 10 vol % inactivated (56° C., 30 min) fetal bovine serum, 100 IU/mL penicillin, 100 μg/mL streptomycin, and 2 mM L-glutamine) at 37° C. in 5% CO2 for 18 to 24 hours. After the medium in the plate was removed, incubation (room temperature, 60 minutes, shading) was performed in a loading buffer (prepared by the method described in the manual of FluxOR Thallium Detection Kit (Invitrogen, F10016, F10017)). A KCNQ2/3 channel opening action (thallium influx into cells) by depolarization stimulation (5 mM potassium and 0.5 mM thallium) was measured by FLIPR TETRA (Molecular Devices). The compound of the present invention was treated 5 minutes before the depolarization stimulation, and the reaction induced by the depolarization stimulation was measured over time for 180 seconds. The channel opening action of the compound of the present invention was evaluated based on the change amount of the fluorescence intensity from the time before the depolarization stimulation to the time after the elapse of 180 seconds, and the concentration (ECrtg50) satisfying 50% of the fluorescence intensity change of a maximum reaction (in the treatment at 10 μM) of retigabine under the conditions of this experiment was calculated.

[1] = Solubility test (DMSO precipitation method, Japanese Pharmacopoeia dissolution test second solution); assay type: physicochemical; conditions: aqueous buffer, kinetic from dmso stock, JP dissolution test second solution pH 6.8, room temperature, quantification range 5 to 100 μM
Description: A calibration curve solution was prepared at 0.1, 0.4, and 2 μM by diluting a test substance (a 10 mM DMSO solution) with acetonitrile and adding acetonitrile containing an internal standard substance (candesartan).
A sample solution was prepared as follows. 5 μL of the compound of the present invention (a 10 mM DMSO solution) was added to 495 μL of the Japanese Pharmacopoeia dissolution test second solution (pH: 6.8), followed by stirring at room temperature for 5 hours. Then, the solution was transferred to a solubility filter plate and subjected to suction filtration. The filtrate (20 μL) was diluted with acetonitrile, followed by adding acetonitrile containing an internal standard substance (candesartan).
Each of the calibration curve and sample solutions (5 μL) was injected into LC-MS/MS (Discovery Max, manufactured by Thermo Scientific, Inc.) and subjected to quantification (quantification range: 5 to 100 μM). The solubility in the case where the value equal to or less than the quantification range was obtained was defined as <5 μM, and the solubility in the case where the value equal to or more than the quantification range was obtained was defined as […].

[2] = Stability in human liver microsomes; assay type: in vitro ADME; conditions: human liver microsomes 0.5 mg/mL, NADPH, 5 μM, 37° C., 15 minutes
Description: A test compound (a 10 mM DMSO solution, 5 μL) was diluted with a 50% aqueous acetonitrile solution (195 μL), whereby a 0.25 mM solution was prepared.
To a reaction vessel preheated to 37° C., 0.5 mg/mL of human liver microsomes (XenoTech, LLC) and 245 JLL of a 0.1 M phosphate buffer solution (pH 7.4) containing NADPH co-factor (BD Biosciences) were added, followed by preincubation for 5 minutes, and thereafter, the above-prepared test compound solution (5 μL) was added thereto to start a reaction (final concentration: 5 μM). Immediately after the start, a 20 μL portion was collected and added to 180 μL of acetonitrile containing an internal standard substance (warfarin) to stop the reaction. A 20 μL portion of this solution was stirred with 180 μL of a 50% aqueous acetonitrile solution on a plate equipped with a deproteinization filter, followed by suction filtration, and the filtrate was used as a standard sample.
After the above-prepared reaction solution was incubated at 37° C. for 15 minutes, a 20 μL portion of the solution was added to 180 μL of cooled acetonitrile (containing warfarin serving as an internal standard substance) to stop the reaction. A 20 μL portion of this solution was stirred with 180 μL of a 50% aqueous acetonitrile solution on a plate equipped with a deproteinization filter, followed by suction filtration, and the filtrate was used as a reaction sample.
A residual ratio (%) was calculated as follows. 1 μL of the sample solution was injected into LC-MS/MS (Discovery Max, manufactured by Thermo Scientific, Inc.), and a value obtained by dividing the peak area ratio of the reaction sample (peak area of test compound/peak area of internal standard substance) by the peak area ratio of the standard sample was multiplied by 100.

Row | Compound | EC50 (Human KCNQ2/3 channel) | solubility at 5 h [1] | Residual ratio [2]
1 | CC1(O)CCc2c1cc(Cl)c(NC(=O)NCC1CC3CCC1C3)c2Cl (stereo not drawn) [Example 3(25), 1-(bicyclo[2.2.1]hept-2-ylmethyl)-3-(4,6-dichloro-1-hydroxy-1-methyl-2,3-dihydro-1H-inden-5-yl)urea] | 10 nM |  | 
2 | O=C(NCc1cccc(N2CCCCC2)n1)Nc1c(Cl)cc2c(c1Cl)CCC2(O)C(F)(F)F (stereo not drawn) [Example 12(9), 1-[4,6-dichloro-1-hydroxy-1-(trifluoromethyl)-2,3-dihydro-1H-inden-5-yl]-3-{[6-(1-piperidinyl)-2 pyridinyl]methyl}urea] | 50 nM |  | 
3 | O=C(NCc1ccc(-c2ccc(Cl)cc2)o1)Nc1c(Cl)cc2c(c1Cl)CCC2(O)C(F)(F)F (stereo not drawn) [Example 12(16), 1-{[5-(4-chlorophenyl)-2-furyl]methyl}-3-[4,6-dichloro-1-hydroxy-1-(trifluoromethyl)-2,3-dihydro-1H-inden-5-yl]urea] | 10 nM |  | 
4 | O=C(NCc1cc2ccccc2[nH]1)Nc1c(Cl)cc2c(c1Cl)CCC2(O)C(F)(F)F (stereo not drawn) [Example 12(21), 1-[4,6-dichloro-1-hydroxy-1-(trifluoromethyl)-2,3-dihydro-1H-inden-5-yl]-3-(1H-indol-2-ylmethyl)urea] | 20 nM |  | 
5 | CC1(CNC(=O)Nc2c(Cl)cc3c(c2Cl)CCC3(O)C(F)(F)F)CC1 (stereo not drawn) [Example 12(17), 1-[4,6-dichloro-1-hydroxy-1-(trifluoromethyl)-2,3-dihydro-1H-inden-5-yl]-3-[(1-methylcyclopropyl)methyl]urea] | 20 nM |  | 
6 | O=C(NCC1CC1)Nc1c(Cl)cc2c(c1Cl)CCC2(O)C(F)(F)F (stereo not drawn) [Example 12(13), 1-(cyclopropylmethyl)-3-[4,6-dichloro-1-hydroxy-1-(trifluoromethyl)-2,3-dihydro-1H-inden-5-yl]urea] | 60 nM | 78 µM (≈ 29.9 µg/mL) | 100%
7 | CC1(O)CCc2c1cc(Cl)c(NC(=O)OCc1ccc(F)cc1)c2Cl (stereo not drawn) [Example 3(19), 4-fluorobenzyl(4,6-dichloro-1-hydroxy-1-methyl-2,3-dihydro-1H-inden-5-yl)carbamate] | 50 nM | 76 µM (≈ 29.2 µg/mL) | 83%
8 | C[C@@H](NC(=O)Nc1c(Cl)cc2c(c1Cl)CC[C@@]2(O)C(F)(F)F)c1ccc(F)cc1 [Example 22, 1-[(1S)-4,6-dichloro-1-hydroxy-1-(trifluoromethyl)-2,3-dihydro-1H-inden-5-yl]-3-[(1R)-1-(4-fluorophenyl)ethyl]urea] | 1 nM |  | 
9 | CC1(O)CCc2c1cc(Cl)c(NC(=O)NC(C)(C)c1ccc(F)cc1)c2Cl (stereo not drawn) [Example 3(10), 1-(4,6-dichloro-1-hydroxy-1-methyl-2,3-dihydro-1H-inden-5-yl)-3-[2-(4-fluorophenyl)-2-propanyl]urea] | 300 nM |  | 
10 | CC1(O)CCc2c1cc(Cl)c(NC(=O)NCc1cccc(C(F)(F)F)c1)c2Cl (stereo not drawn) [Example 3(9), 1-(4,6-dichloro-1-hydroxy-1-methyl-2,3-dihydro-1H-inden-5-yl)-3-[3-(trifluoromethyl)benzyl]urea] | 40 nM |  | 
11 | CC1(O)CCc2c1cc(Cl)c(NC(=O)NCCc1ccc(F)cc1)c2Cl (stereo not drawn) [Example 3(7), 1-(4,6-dichloro-1-hydroxy-1-methyl-2,3-dihydro-1H-inden-5-yl)-3-[2-(4-fluorophenyl)ethyl]urea] | 500 nM | 86 µM (≈ 34.2 µg/mL) | 
12 | C[C@@H](NC(=O)Nc1c(Cl)cc2c(c1Cl)CC[C@]2(O)C(F)(F)F)c1ccc(F)cc1 [Example 21, 1-[(1R)-4,6-dichloro-1-hydroxy-1-(trifluoromethyl)-2,3-dihydro-1H-inden-5-yl]-3-[(1R)-1-(4-fluorophenyl)ethyl]urea] | 5 nM | 72 µM (≈ 32.5 µg/mL) | 95%
13 | CC1(CNC(=O)Nc2c(Cl)cc3c(c2Cl)CCC3(O)C(F)(F)F)CCOCC1 (stereo not drawn) [Example 12(2), 1-[4,6-dichloro-1-hydroxy-1-(trifluoromethyl)-2,3-dihydro-1H-inden-5-yl]-3-[(4-methyltetrahydro-2H-pyran-4-yl)methyl]urea] | 200 nM | 85 µM (≈ 37.5 µg/mL) | 
14 | CC1(O)CCc2c1cc(Cl)c(NC(=O)NCc1ccc(OC(F)(F)F)cc1F)c2Cl (stereo not drawn) [Example 3(16), 1-(4,6-dichloro-1-hydroxy-1-methyl-2,3-dihydro-1H-inden-5-yl)-3-[2-fluoro-4-(trifluoromethoxy)benzyl]urea] | 30 nM |  | 
15 | CC1(O)CCc2c1cc(Cl)c(NC(=O)NCCOc1ccc(F)cc1)c2Cl (stereo not drawn) [Example 3(23), 1-(4,6-dichloro-1-hydroxy-1-methyl-2,3-dihydro-1H-inden-5-yl)-3-[2-(4-fluorophenoxy)ethyl]urea] | 600 nM | 83 µM (≈ 34.3 µg/mL) | 
16 | CC1(O)CCc2c1cc(Cl)c(NC(=O)NCCC1CCCC1)c2Cl (stereo not drawn) [Example 3(13), 1-(2-cyclopentylethyl)-3-(4,6-dichloro-1-hydroxy-1-methyl-2,3-dihydro-1H-inden-5-yl)urea] | 20 nM | 92 µM (≈ 34.2 µg/mL) | 
17 | CC1(O)CCc2c1cc(Cl)c(NC(=O)NCCOC1CCCCC1)c2Cl (stereo not drawn) [Example 3(24), 1-[2-(cyclohexyloxy)ethyl]-3-(4,6-dichloro-1-hydroxy-1-methyl-2,3-dihydro-1H-inden-5-yl)urea] | 400 nM |  | 
18 | CC1(C)CC(C)(O)c2cc(Cl)c(NC(=O)NCc3ccc(C(F)(F)F)cn3)c(Cl)c21 (stereo not drawn) [Example 35, 1-(4,6-dichloro-1-hydroxy-1,3,3-trimethyl-2,3-dihydro-1H-inden-5-yl)-3-{[5-(trifluoromethyl)-2 pyridinyl]methyl}urea] | 300 nM | 80 µM (≈ 37 µg/mL) | 81%
19 | Cc1cc(CNC(=O)Nc2c(Cl)cc3c(c2Cl)CCC3(O)C(F)(F)F)no1 (stereo not drawn) [Example 12(8), 1-[4,6-dichloro-1-hydroxy-1-(trifluoromethyl)-2,3-dihydro-1H-inden-5-yl]-3-[(5-methyl-1,2-oxazole-3-yl)methyl]urea] | 200 nM | 94 µM (≈ 39.9 µg/mL) | 100%

Source: patent US10519105B2, “KCNQ2-5 channel activator” (ONO PHARMACEUTICAL CO., LTD., priority 2016, dated 2019)
